Assay results taken from patent US20230406859A1, “METHOTREXATE ANALOGS AND METHODS OF USE” (The United States of America, as represented by the …, priority 2020, published 2023).
Like-named read-outs stand apart in the source and are kept apart here.

Key:
Assay type in all cases: cell-based
[1] = target: T1, DHFR (Homo sapiens, UniProt P00374); conditions: HBL1 cells, Western blot
T1 construct: Western blot detection of DHFR levels after treatment of HBL1 cells for 16 h; endogenous in cells; host or cells: HBL1 lymphoma cell line
T1 sequence (P00374 1-187): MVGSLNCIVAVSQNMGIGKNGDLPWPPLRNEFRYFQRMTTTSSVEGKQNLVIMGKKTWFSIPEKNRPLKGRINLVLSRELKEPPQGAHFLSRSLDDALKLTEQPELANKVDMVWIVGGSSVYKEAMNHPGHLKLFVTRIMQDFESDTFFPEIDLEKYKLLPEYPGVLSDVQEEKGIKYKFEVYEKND
Description: (§1) Human embryonic kidney HEK293T cells and immortalized fibroblasts were maintained in DMEM (Gibco) supplemented with 10% fetal bovine serum (Hyclone), 2 mmol/L L-glutamine, Hepes (Gibco), and 100 U/mL penicillin/streptomycin (Invitrogen). The lymphoma cell line HBL1 was maintained in RPMI (Life Technology) supplemented with 5% fetal bovine serum (Hyclone), 2 mmol/L 1-glutamine, Hepes (Gibco), and 100 U/mL penicillin/streptomycin (Invitrogen).
Western blotting: Cells at confluence from 12-well plate treatments were washed with PBS and lysed in 75 μL/well NP40 lysis buffer (Cell Signaling), subjected to agitation and centrifugation. Approximately 100 μg of total protein was used per analysis. […] Blots were first incubated with 1:2000 dilution of anti-human DHFR antibody (Abcam, ab124814, host rabbit) for 16 h at 4° C. with shaking, washed 3× with TBS-T and incubated with 1:2000 dilution of anti-human β-actin primary antibody (Cell Signaling, host mouse) for 1 h at ambient temperature with shaking. Blots were then washed 3× with TBS-T and incubated with 1:5000 HRP secondary antibody (Novex, anti-Rabbit IgG raised in Goat, 1 mg/ml) for 1 h at ambient temperature, then washed with 3×TBS-T and developed with Pierce ECL Dura reagent for 5 min. Immunoreactive bands were imaged on a ChemiDoc Imaging System (Bio-Rad) with 20 s chemiluminescence exposure. The molecular weight marker ladder was imaged with colorimetric auto-exposure, and both images merged.

[2] = test system: HBL1 cells; experiment: CellTiter-Glo assay of cellular ATP levels in HBL1 cells (16 h)
Procedure: Cell Culture Methods: Cells (HBL1, immortalized fibroblasts from a healthy donor, or 293T) were seeded at the numbers indicated in a 12-well plate in 500 ul. […] Human embryonic kidney HEK293T cells and immortalized fibroblasts were maintained in DMEM (Gibco) supplemented with 10% fetal bovine serum (Hyclone), 2 mmol/L L-glutamine, Hepes (Gibco), and 100 U/mL penicillin/streptomycin (Invitrogen). The lymphoma cell line HBL1 was maintained in RPMI (Life Technology) supplemented with 5% fetal bovine serum (Hyclone), 2 mmol/L 1-glutamine, Hepes (Gibco), and 100 U/mL penicillin/streptomycin (Invitrogen). Cells were cultured in incubators maintained at 37° C., with 5% CO2 and 85% humidity.
(§2) Cell-Titer-Glo viability assays: Five μL of cells (2500 cells) from the 12-well plate culture were plated into white 1536-well plates (Greiner, Monroe, NC, 789173-F) in 6 replicates. CellTiter-Glo Luminescent Cell Viability Assay (CTG) (Promega, G7572), 2.5 μL/well reagent was added with a BioRAPTR FRD (Beckman Coulter, Sykesville, MD), plates were incubated in the dark at ambient temperature for 10 min, and luminescence measured with a ViewLux 1430 Ultra HTS (Perkin Elmer, Waltham, MA).

[3] = target: T2, human DHFR-HiBiT fusion protein (Homo sapiens, UniProt P00374); experiment: DHFR-HiBiT assay (high-throughput DHFR abundance) in HBL1 cells; conditions: HBL1, 24 h, read-out: efficacy (%)
T2 construct: expressed in transfected cells; host or cells: HBL1 cells retrovirally infected with pBMN-Ires-Lyt-2 carrying DHFR-HiBiT
T2 sequence (P00374 with tags, fused parts or gaps): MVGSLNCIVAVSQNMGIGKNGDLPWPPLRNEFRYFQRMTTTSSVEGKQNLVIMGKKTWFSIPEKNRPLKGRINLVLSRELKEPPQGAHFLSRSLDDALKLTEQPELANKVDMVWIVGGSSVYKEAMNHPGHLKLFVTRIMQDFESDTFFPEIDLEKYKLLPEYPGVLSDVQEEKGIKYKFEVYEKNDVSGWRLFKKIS
Description: The human DHFR-HiBiT construct was synthetized (Bio Basic) and cloned into the retroviral vector pBMN-Ires-Lyt-2 (provided by G. Nolan, Stanford University, Stanford, CA) which expresses the coding region of mouse CD8a (Lyt-2) using the restriction sites BamHI/XhoI. All constructs were sequenced to validate authenticity. Infected cells were positively selected based on murine CD8a expression using magnetic beads (Miltenyi Biotech).
as §1, with “Cell culture: Human” for “Human”, “cells” for “cells and immortalized fibroblasts”, “1-glutamine, HEPES (Gibco)” for “L-glutamine, Hepes (Gibco),”, “were” for “was”, “L-glutamine, HEPES (Gibco)” for “1-glutamine, Hepes (Gibco),”
Transfection and retroviral infections: Transfections were performed using Lipofectamine 2000 (Invitrogen) according to the manufacturer's protocol. For retroviral infections, viruses were produced in HEK293T cells and used to infect HBL1 cell line. […] Supernatants containing the retrovirus were collected and filtered at 48- and 72-hours post-transfection. HBL1 cells were centrifuged and then resuspended with the retroviral supernatant with 8 μg/ml of polybrene. The cells were spin-infected twice on consecutive days at 2,500 rpm, at RT, for 90 minutes.
Lytic HiBiT Detection: Cells were plated in solid white 1536-well tissue culture plates (Greiner), at the concentration of 2000 cells/well. After treatment, an equal volume of Nano-Glo HiBiT Lytic Reagent (Promega) containing the substrate furimazine and Large BiT (LgBiT) was added to the cells according to the manufacturer's protocol. Cells were incubated for 10 min at room temperature, and luminescence was measured using a Perkin Elmer ViewLux microplate imager with 30 seconds of exposure time.

[4] = test system: HBL1 cell line; experiment: CellTiter-Glo cell viability (cytotox), HBL1 cell line, 72 hours; conditions: HBL1 cell line, CellTiter-Glo; unit inferred
Procedure: as §2, with “CellTiter-Glo” for “Cell-Titer-Glo”

[5] = target: T3, DHFR (Homo sapiens, UniProt P00374); experiment: Western blot for DHFR in MTX-resistant HBL1 cell line; parameters: dose or concentration left out as unconfirmed
T3 construct: endogenous in cells
T3 sequence (P00374 2-187): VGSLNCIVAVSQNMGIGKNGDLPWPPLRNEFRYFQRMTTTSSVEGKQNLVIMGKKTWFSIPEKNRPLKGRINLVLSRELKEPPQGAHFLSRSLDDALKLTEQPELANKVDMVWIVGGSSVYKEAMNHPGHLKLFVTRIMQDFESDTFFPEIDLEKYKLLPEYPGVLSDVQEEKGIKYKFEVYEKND
Procedure: Protein expression analysis: Cells were collected and homogenized in lysis buffer (20 mM Tris-HCl (pH 7.5), 150 mM NaCl, 1 mM Na2EDTA, 1 mM EGTA 1% Triton, 2.5 mM sodium pyrophosphate) with freshly added protease inhibitors (50 mM HEPES, pH 7.6, 150 mM NaCl, 20 mM EDTA, 10 mM sodium orthovanadate (Vanadate, Na3VO4), 100 mM NaF, 2% Triton X-100, 10 μg/ml aprotinin, 10 μg/ml leupeptin, 0.5 mm phenylmethyl sulfonyl fluoride). […] The membrane was immunoblotted with rabbit polyclonal anti-DHFR or mouse anti-β-actin antibodies. The immune complexes were detected by horseradish peroxidase-conjugated secondary antibodies (Thermo Scientific) and developed using a ChemiDoc MP Imager (Bio-Rad). To detect HiBiT-tagged proteins, the membrane was rinsed for 1 h in TBST and then incubated in LgBiT/buffer solution overnight. Nano-Glo® Luciferase Assay Substrate furimazine was added and incubated 5 minutes, and the blot was exposed on the imager.

[6] = target: thymidylate synthase (TS) (Homo sapiens, UniProt P04818); experiment: Western blot of thymidylate synthase levels in HBL1 cells; parameters: Western blot detection of folate-cofactor dependent enzyme levels after treatment of HBL1 cells; endogenous in cells; host or cells: HBL1 lymphoma cell line; conditions: 1 μM, 16 h
thymidylate synthase (TS), sequence (P04818 2-313 limits assumed): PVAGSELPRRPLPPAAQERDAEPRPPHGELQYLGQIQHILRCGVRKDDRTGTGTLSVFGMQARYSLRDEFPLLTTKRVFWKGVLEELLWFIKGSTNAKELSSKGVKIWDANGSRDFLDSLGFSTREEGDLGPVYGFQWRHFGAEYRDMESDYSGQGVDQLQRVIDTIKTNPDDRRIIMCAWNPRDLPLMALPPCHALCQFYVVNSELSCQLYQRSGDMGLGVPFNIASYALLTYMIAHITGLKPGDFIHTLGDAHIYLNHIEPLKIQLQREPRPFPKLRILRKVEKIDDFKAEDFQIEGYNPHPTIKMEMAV

CN(Cc1cnc2nc(N)nc(N)c2n1)c1ccc(C(=O)N[C@@H](CCC(=O)NCCOCCOCCOCCNC(=O)COc2cccc3c2C(=O)N(C2CCC(=O)NC2=O)C3=O)C(=O)O)cc1 (stereo partly drawn) [NCGC00685965, (19S)-19-(4-(((2,4-diaminopteridin-6-yl)methyl)(methyl)amino)benzamido)-1-((2-(2,6-dioxopiperidin-3-yl)-1,3-dioxoisoindolin-4-yl)oxy)-2,16-dioxo-6,9,12-trioxa-3,15-diazaicosan-20-oic acid]
effect on DHFR protein levels [1]: remained capable of depleting cellular DHFR | effect on DHFR protein levels ([1]; listed as MTX-PROTAC 9): robust DHFR depletion | effect on cellular ATP levels (acute cellular toxicity) [2]: did not significantly alter ATP levels even up to 1 μM | Dmax [3]: 64.2% | IC50 [4]: 5.91 µM | depletion of cellular DHFR [5]: remained capable of depleting cellular DHFR | effect on TS protein level [6]: slight increase in TS
